Measured values as given in US20110053897A1 (IRM LLC, priority 2009, published 2011).
pIC50: −log10 of the molar value.

What follows are compounds tested against T1, Syk kinase (Homo sapiens, UniProt P43405) (assay: Syk kinase inhibition, Caliper LabChip off-chip mobility-shift kinase assay). Details: Caliper LabChip assay; read-out: Syk Enzyme IC50.
T1 construct: purchased
Type: biochemical
Method in brief: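 Purified Syk pre-incubated 15 min with compound in 100 mM HEPES pH 7.5, 1 mM DTT, 10 mM MgCl2 or MnCl2, 0.002% Brij-35, then 1.5 μM fluorescein peptide and ATP at apparent KM added; 1–1.5 h at room temperature, 4% DMSO, EDTA stop. Microfluidic mobility-shift product/substrate conversion gave % inhibition; IC50 from 12-point series (10–0.00003 μM) by 4-parameter fit.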

| Structure (SMILES) | pIC50 |
| --- | --- |
| Nc1ncc(-c2cc3ccn(C4COC4)c(=O)c3c(NC3CCOCC3)n2)cn1 [compound 770] | 7.44 |
| CCn1ccc2cc(Nc3nccc(O)n3)nc(N)c2c1=O [compound 803] | 6.51 |
| CC1(Cn2ccc3cc(-c4cnc(N)nc4)nc(NC4CCC4)c3c2=O)COC1 [compound 771] | 7.12 |
| CC(C)(C)Nc1nc(-c2cnc(N)nc2)cc2ccn(C3COC3)c(=O)c12 [compound 921] | 7.68 |
| Cc1ccnc(Nc2cc3ccn(CCO)c(=O)c3c(Nc3ccc(C(=O)N4CCOCC4)c(C)c3)n2)c1 [compound 650] | 6.73 |
| O=c1[nH]ccc2cc(Nc3cnccn3)nc(N[C@H]3CC[C@H](O)CC3)c12 [compound 976] | 8.30 |
| Nc1nc(Nc2nccc(O)n2)cc2ccn(CCO)c(=O)c12 [compound 812] | 6.44 |
| O=c1[nH]ccc2cc(Nc3cnccn3)nc(NC3CCC3)c12 [compound 767] | 8.52 |
| CC1(Cn2ccc3cc(-c4cnc(N)nc4)nc(NC4CCOCC4)c3c2=O)COC1 [compound 769] | 7.18 |
| Cn1ccc2cc(Nc3nccc(O)n3)nc(N[C@H]3CC[C@H](O)CC3)c2c1=O [compound 799] | 7.54 |

Next, values leading:

| pIC50 | Structure (SMILES) |
| --- | --- |
| 6.84 | CCn1ccc2cc(Nc3cnccn3)nc(NCC(O)C(F)(F)F)c2c1=O (stereo not shown) [compound 779, 2-ethyl-6-(pyrazin-2-ylamino)-8-((3,3,3-trifluoro-2-hydroxypropyl)amino)-2,7-naphthyridin-1(2H)-one] |
| 7.77 | NC(=O)Cn1ccc2cc(Nc3cnccn3)nc(N[C@H]3C[C@@H](CO)C3)c2c1=O [compound 747] |
| 6.96 | CCn1ccc2cc(Nc3cnccn3)nc(NCC(F)(F)F)c2c1=O [compound 1044] |
| 7.35 | CC1(Nc2nc(Nc3cc(C(C)(C)O)ccn3)cc3ccn(CCO)c(=O)c23)CCC1 [compound 704] |
| 7.22 | Cc1ccnc(Nc2cc3ccn(C(C)C)c(=O)c3c(N[C@H]3CC[C@@H](CO)C3)n2)c1 [compound 987] |
| 7.46 | CC1(Nc2nc(Nc3cc(C(C)(C)O)ncn3)cc3ccn(CC(O)CO)c(=O)c23)CCC1 (stereo not shown) [compound 732] |
| 7.14 | CC(C)(C)Nc1nc(Nc2cc(-c3cccnc3)ccn2)cc2ccn(CCO)c(=O)c12 [compound 828] |
| 7.38 | CC(C)(C)Nc1nc(Nc2cc(C(C)(C)O)ncn2)cc2ccn(CC(O)CO)c(=O)c12 (stereo not shown) [compound 730] |
| 6.95 | CC(C)Nc1nc(Nc2cc(-c3cccnc3)ccn2)cc2ccn(C)c(=O)c12 [compound 1046] |
| 7.70 | CC1(Nc2nc(-c3cnc(N)nc3)cc3ccn(CCO)c(=O)c23)CC1 [compound 1036] |
| 7.66 | CC1(Cn2ccc3cc(Nc4cnccn4)nc(NC4CCCC4)c3c2=O)COC1 [compound 762] |
| 6.99 | CC(C)(C)Nc1nc(Nc2cc(-c3cnn(CC(N)=O)c3)ccn2)cc2ccn(CCO)c(=O)c12 [compound 849] |
| 7.32 | CC(C)(C)Nc1nc(Nc2cc(OCC3CCOC3)ncn2)cc2ccn(CC(O)CO)c(=O)c12 (stereo not shown) [compound 887] |
| 6.92 | CC(C)(C)Nc1nc(Nc2cnccn2)cc2ccn(C3COC3)c(=O)c12 [compound 1014] |
| 6.57 | CC(C)(C)Nc1nc(Nc2cc(-c3ccccc3)ccn2)cc2ccn(CCO)c(=O)c12 [compound 829] |
| 7.54 | Cc1ccnc(Nc2cc3ccn(C(C)C)c(=O)c3c(N[C@@H](C)CO)n2)c1 [compound 966] |
| 7.82 | O=c1c2c(N[C@H]3CC[C@H](O)CC3)nc(Nc3cnccn3)cc2ccn1CCO [compound 989] |
| 7.25 | CC(C)(O)COc1cc(Nc2cc3ccn(CCO)c(=O)c3c(NC(C)(C)C)n2)ncn1 [compound 641] |
| 6.97 | CC(C)(C)Nc1nc(Nc2cc(C(C)(C)O)ccn2)cc2ccn(CC(N)=O)c(=O)c12 [compound 726] |
| 8.30 | CCn1ccc2cc(Nc3cnccn3)nc(NC3(CO)CCC3)c2c1=O [compound 897] |
| 7.66 | CCn1ccc2cc(Nc3nccc(O)n3)nc(N[C@@H]3CC[C@H](O)C3)c2c1=O [compound 958] |
| 8.10 | CC(C)(C)Nc1nc(-c2cnc(N)nc2)cc2ccn(CC(O)CO)c(=O)c12 (stereo not shown) [compound 929] |
| 7.29 | CC(C)(C)Nc1nc(Nc2cc(-c3ccncc3)ccn2)cc2ccn(CCO)c(=O)c12 [compound 842] |
| 6.55 | CC(C)(C)Nc1nc(Nc2cc(-c3cn[nH]c3)ncn2)cc2ccn(CCO)c(=O)c12 [compound 639] |

Same assay, conditions: read-out: Syk Enzyme IC50

| Structure (SMILES) | pIC50 |
| --- | --- |
| Cc1ccc(Nc2cc3cc[nH]c(=O)c3c(Nc3ccc(N4CCOCC4)cc3)n2)nc1 [compound 545] | 5.41 |
| O=C1CCC(c2ccc(Nc3nc(-c4cncnc4)cc4cc[nH]c(=O)c34)cc2)CC1 [compound 91] | 6.40 |
| Cn1ccc2cc(Nc3cnccn3)nc(Nc3ccc(C4CCNCC4)cc3)c2c1=O [compound 341] | 6.95 |
| COc1cncc(-c2cc3cc[nH]c(=O)c3c(Nc3ccc(C4=CCNCC4)c(C)c3)n2)n1 [compound 13] | 7.42 |
| O=c1[nH]ccc2cc(-c3cncnc3)nc(Nc3ccc(C4CNC4)cc3)c12 [compound 129] | 6.96 |
| COc1cncc(-c2cc3cc[nH]c(=O)c3c(Nc3ccc(C4CCN(CC(C)C#N)CC4)c(C)c3)n2)n1 (stereo not shown) [compound 178] | 7.21 |
| Cn1cc(-c2cc3cc[nH]c(=O)c3c(Nc3ccc([C@H]4CC[C@H](N5CCOCC5)CC4)cc3)n2)cn1 [compound 99] | 6.77 |
| Cn1ccc2cc(Nc3cnccn3)nc(NCC(F)(F)F)c2c1=O [compound 464] | 7.09 |
| CCc1ccnc(Nc2cc3cc[nH]c(=O)c3c(NC3CC3)n2)c1 [compound 521] | 6.88 |
| O=c1[nH]ccc2cc(-c3cncnc3)nc(Nc3ccc([C@H]4CC[C@H](N5CCOCC5)CC4)cc3)c12 [compound 111] | 6.72 |
| COc1cncc(-c2cc3cc[nH]c(=O)c3c(Nc3ccc(CCC(=O)N4CCOCC4)cc3)n2)n1 [compound 25] | 7.62 |
| Cc1ccnc(Nc2cc3ccn(C)c(=O)c3c(Nc3ccc(C4CCNCC4)cc3)n2)c1 [compound 308] | 8.15 |
| COc1cncc(-c2cc3cc[nH]c(=O)c3c(Nc3ccc(C4CCN(C(C)C(=O)NC5CC5)CC4)c(C)c3)n2)n1 (stereo not shown) [compound 121] | 6.74 |
| O=c1[nH]ccc2cc(Nc3ccc(C(F)(F)F)cn3)nc(Nc3ccc(N4CCOCC4)cc3)c12 [compound 577] | 6.12 |
| COc1cncc(-c2cc3cc[nH]c(=O)c3c(Nc3ccc(C4CCN(C(=O)C5CCOC5)CC4)c(C)c3)n2)n1 (stereo not shown) [compound 89] | 7.26 |
| CCOCCc1cc2cc[nH]c(=O)c2c(Nc2ccc(N3CCO[C@H](C)C3)c(C)c2)n1 [compound 222] | 6.61 |
| Cc1ccnc(Nc2cc3cc[nH]c(=O)c3c(N[C@H](C)CO)n2)c1 [compound 295] | 7.70 |
| Cn1ccc2cc(Nc3cnccn3)nc(Nc3ccc(S(C)(=O)=O)cc3)c2c1=O [compound 336] | 6.23 |
| O=c1[nH]ccc2cc(Nc3ccccn3)nc(NC3CC3)c12 [compound 524] | 6.70 |

| Structure (SMILES) | pIC50 |
| --- | --- |
| COc1cncc(-c2cc3cc[nH]c(=O)c3c(Nc3ccc(C4CCN(CCC#N)C4)cc3)n2)n1 (stereo not shown) [compound 65] | 7.52 |
| Cn1ccc2cc(Nc3cnccn3)nc(Nc3cccc(S(N)(=O)=O)c3)c2c1=O [compound 339] | 6.06 |
| N#Cc1ccc(Nc2cc3cc[nH]c(=O)c3c(Nc3ccc(N4CCOCC4)cc3)n2)nc1 [compound 515] | 6.52 |
| CCc1ccnc(Nc2cc3cc[nH]c(=O)c3c(Nc3ccc(CCN4CCN(CC)CC4)cc3)n2)c1 [compound 546] | 7.06 |
| Cc1cc(Nc2nc(Nc3ccc(C(N)=O)cn3)cc3cc[nH]c(=O)c23)ccc1C1CCN(C2CC2)CC1 [compound 251] | 7.24 |
| COc1cncc(-c2cc3cc[nH]c(=O)c3c(Nc3ccc(CCN4CCNCC4)cc3)n2)n1 [compound 54] | 7.19 |
| COc1cncc(-c2cc3cc[nH]c(=O)c3c(Nc3ccc(C4CCN(CC5CC5)CC4)c(C)c3)n2)n1 [compound 81] | 8.40 |
| Cc1cc(Nc2nc(Nc3ccc(Cl)cn3)cc3cc[nH]c(=O)c23)ccc1C1CCN(C2CC2)CC1 [compound 250] | 5.68 |
| Cc1ccnc(Nc2cc3cc[nH]c(=O)c3c(NCC(F)(F)F)n2)c1 [compound 516] | 6.82 |
| Cc1ccnc(Nc2cc3cc[nH]c(=O)c3c(NCC(O)c3cccc(Cl)c3)n2)c1 (stereo not shown) [compound 496] | 6.94 |
| COc1cncc(-c2cc3cc[nH]c(=O)c3c(Nc3ccc(C4CN(CCC#N)C4)cc3)n2)n1 [compound 153] | 7.49 |
| CC(CO)Nc1nc(-c2cnc(N)nc2)cc2cc[nH]c(=O)c12 (stereo not shown) [compound 183] | 6.69 |
| Cc1cc(-c2cc3cc[nH]c(=O)c3c(Nc3ccc(C4CCN(C5CC5)CC4)c(C)c3)n2)ccn1 [compound 212] | 6.41 |
| CCOCCOc1cccc(Nc2nc(Nc3cnccn3)cc3ccn(C)c(=O)c23)c1 [compound 337] | 5.67 |
| CCNC(=O)c1ccc(Nc2nc(Nc3cc(C)ccn3)cc3ccn(C)c(=O)c23)cc1 [compound 380] | 6.42 |
| COc1cncc(-c2cc3cc[nH]c(=O)c3c(Nc3ccc(CCN4CCC(OC)CC4)cc3)n2)n1 [compound 23] | 7.41 |
| CC(=O)N1CCN(CCc2ccc(Nc3nc(Nc4ccc(C)cn4)cc4cc[nH]c(=O)c34)cc2)CC1 [compound 541] | 5.95 |
| Cc1ncc(-c2cc3cc[nH]c(=O)c3c(Nc3ccc(C4CCC(N(C)C)CC4)cc3)n2)cn1 (stereo not shown) [compound 106] | 7.17 |
| CCCNC(=O)c1ccc(Nc2cc3ccn(C)c(=O)c3c(N)n2)nc1 [compound 575] | 5.58 |

The next lines start with the values.

| pIC50 | Structure (SMILES) |
| --- | --- |
| 7.63 | CCn1ccc2cc(Nc3cnccn3)nc(N[C@H]3CCC[C@H]3O)c2c1=O [compound 421] |
| 7.28 | CC(C)(C)Nc1nc(Nc2cnccn2)cc2ccn(CCO)c(=O)c12 [compound 459] |
| 7.74 | CCn1ccc2cc(Nc3cc(C)ccn3)nc(N[C@H]3CC[C@@H](O)CC3)c2c1=O [compound 362] |
| 6.21 | CCCc1ccnc(Nc2cc3ccn(CC)c(=O)c3c(NC(C)C)n2)c1 [compound 306] |
